Experimental data published in patent US20120184504A1, “"The Use of a PAR-1 Antagonist in Combination with a P2Y12 ADP Receptor Antagonist for Inhibition of Thrombosis"” (priority 2009, published 2012).
One block for each molecule: values may come before it.

Assays:
[1] = Activated partial thromboplastin time (APTT) in plasma, Folts model animals; format: in vivo, cynomolgus monkeys; settings: for APTT: i.v.; for effect on APTT: tested doses
Experimental: (§1) Animals instrumented to produce CFRs were administered SCH 602539, cangrelor, or a combination of SCH 602539 and cangrelor. The dosing regimens of SCH 602539 were selected to provide a broad range of inhibition of platelet aggregation induced by 1 μM thrombin receptor agonist peptide (TRAP), whereas the doses of cangrelor were selected to achieve 50%-60% inhibition of platelet aggregation induced by 10 μM ADP (the degree of inhibition obtained with clopidogrel). Group 1 received drug vehicle only (20% hydroxypropyl betacyclodextran or saline, 2 mL i.v.). Group 2 received SCH 602539 dissolved in 20% hydroxypropyl betacyclodextran administered as sequential i.v. boluses of 0.1, 0.3, or 1 mg/kg, at 30-minute intervals. Group 3 received cangrelor dissolved in saline and administered as an intravenous infusion of 0.1, 0.2, or 0.3 μg/kg/min for 30 minutes each. Group 4 received a combination of SCH 602539 bolus plus cangrelor infusion (at respective doses of: 1) 0.05 mg/kg+0.05 μg/kg/min; 2) 0.1 mg/kg+0.1 μg/kg/min; and 3) 0.15 mg/kg+0.1 μg/kg/min. The three dose regimens within each group were administered sequentially over the consecutive 30-minute periods coinciding with the re-induction of endothelial injury. Study drug or vehicle was administered after stable CFRs were achieved, and upon the completion of a 30-minute baseline CFR collection period, drug(s) or vehicle were administered incrementally (every 30 minutes) either as a bolus (SCH 602539) or as an infusion (cangrelor), and their effects on CFRs were monitored in the next three 30-minute observation periods. Blood samples (3 mL) were collected from the femoral arterial catheter at the end of each 30-minute observation period for assessment of ex vivo platelet aggregation and coagulation parameters.
Platelet aggregation studies were performed ex viva on blood samples obtained from the monkeys subjected to the Folts model, using a ChronoLog whole blood aggregometer (Model 540VS, Havertown, Pa.). Briefly, 0.5 mL of blood was incubated with 0.5 mL of normal saline at 37° C. in a cuvette containing a stir bar for 2 minutes. Platelet agonists used in this study included TRAP (3 μM), ADP (10 μM), the thromboxane A2 mimetic U46619 (10 μM), and collagen (3 μg/mL). Platelet aggregation was monitored for 5 minutes following the addition of the agonist. The peak aggregation response was recorded in ohms. In addition, standard coagulation parameters, including prothrombin time (PT), activated partial thromboplastin time (APTT), and activated clotting time (ACT), were assessed.
PT and APTT assays were performed with plasma, while the ACT assay was performed with whole blood. Data are presented as mean±SEM (n=5-6/group).

[2] = test system: platelet-dependent thrombus formation (cyclic flow reductions); test: Folts model of thrombosis: cyclic flow reductions (CFRs) in the carotid artery; format: in vivo, cynomolgus monkeys; settings: for EC50 (dose regimen needed for 50% reduction in CFRs): from dose-response curve, Inhibitory Effect Emax model
From the text: The procedures used in this study are similar to the acute artery occlusion model developed by Folts and others. (Cook J J, Sitko G R, Bednar B, Condra C, Mellott M J, Feng D M, Nutt R F, Shafer J A, Gould R J, Connolly T M. An antibody against the exosite of the cloned thrombin receptor inhibits experimental arterial thrombosis in the African green monkey. Circulation. 1995; 91:2961-2971. Folts J. An in vivo model of experimental arterial stenosis, intimal damage, and periodic thrombosis. Circulation. 1991; 83(Suppl):IV3-IV14. Mousa S A, DeGrado W F, Mu D X, Kapil R P, Lucchesi B R, Reilly T M. Oral antiplatelet, antithrombotic efficacy of DMP 728, a novel platelet GPIIb/IIIa antagonist. Circulation. 1996; 93:537-543. Wu D, Vanhoorelbeke K, Cauwenberghs N, Meiring M, Depraetere H, Kotze H F, Deckmyn H. Inhibition of the von Willebrand (VWF)-collagen interaction by an antihuman VWF monoclonal antibody results in abolition of in vivo arterial platelet thrombus formation in baboons. Blood. 2002; 99:3623-3628).
Cynomolgus monkeys were sedated with ketamine HCl (10 mg/kg, IM) followed by anesthetization with sodium pentobarbital 20 mg/kg i.v. bolus and an infusion of 5 mg/kg/h i.v. for the duration of the experiment. Body temperature was maintained at 37°-39° C., and fluids infused were warmed to body temperature. The right carotid artery was exposed and dissected free of surrounding tissue, and a transonic flow probe of appropriate size was placed around the vessel. A Lexan constrictor (5 mm length) was placed onto the carotid artery. The constrictor was sized to abolish reactive hyperemia and to reduce mean carotid blood flow by no more than 50%-60%. Mechanical damage to the endothelium was induced in the constricted segment of the artery. Cyclic flow reductions due to platelet-dependent thrombus formation occurred shortly after placement of the constrictor over the region of endothelial damage. These gradual declines in carotid blood flow were occasionally interrupted spontaneously, but frequently required manual restoration by gently shaking the vessel. Flow reductions would typically return in 3-4 minutes. CFR frequency was calculated as the number of such cycles (CFRs) over a 30-minute period. On the basis of pilot studies, CFRs were evaluated in a maximum of four consecutive 30-minute collection periods, and mechanically mediated endothelial injury was performed at 30-minute intervals to ensure exposure of the thrombogenic endothelium.
as §1, with “Study drug or vehicle was administered after stable CFRs were achieved, and upon the completion of a 30-minute baseline CFR collection period, drug(s) or vehicle were administered incrementally (every 30 minutes) either as a bolus (SCH 602539) or as an infusion (cangrelor), and their effects on CFRs were monitored in the next three 30-minute observation periods. Blood samples (3 mL) were collected from the femoral arterial catheter at the end of each 30-minute observation period for assessment of ex vivo platelet aggregation and coagulation parameters.” left out

APTT ([1]; Cangrelor 0.1 μg/kg/min × 30 min, plasma, baseline 22.5 ± 1.6): 23.6 ± 2.6 s
APTT ([1]; Cangrelor 0.2 μg/kg/min × 30 min, baseline 22.5 ± 1.6): 22.1 ± 1.3 s
APTT ([1]; Cangrelor 0.3 μg/kg/min × 30 min, baseline 22.5 ± 1.6): 22.2 ± 2.0 s
effect on APTT [1]: no effect
EC50 (dose regimen needed for 50% reduction in CFRs) ([2]; i.v. infusion): 0.099 ± 0.039 µg/kg/min
SMILES: CSCCNc1nc(SCCC(F)(F)F)nc2c1ncn2[C@@H]1O[C@H](COP(=O)(O)OP(=O)(O)C(Cl)(Cl)P(=O)(O)O)[C@@H](O)[C@H]1O [Cangrelor]
CFRs ([2]; Cangrelor 0.1 μg/kg/min i.v. infusion 30 min, per 30-minute period, baseline 9.5 + 0.9): 5.7 + 1.5
CFRs ([2]; Cangrelor 0.2 μg/kg/min i.v. infusion 30 min, baseline 9.5 + 0.9): 3.2 + 1.7
CFRs ([2]; Cangrelor 0.3 μg/kg/min i.v. infusion 30 min, baseline 9.5 + 0.9): 1.2 + 1.3
CFR frequency reduced from baseline ([2]; cangrelor 0.1 μg/kg/min 30-minute infusion): approximately 40%
CFR frequency reduced from baseline ([2]; cangrelor 0.2 μg/kg/min 30-minute infusion, significant versus vehicle): ~70%
CFR frequency reduced from baseline ([2]; cangrelor 0.3 μg/kg/min 30-minute infusion, significant versus vehicle): ~90%
animals in which CFRs were completely prevented ([2]; cangrelor highest dose (0.3 μg/kg/min)): 5/6
animals in which CFRs were completely prevented ([2]; cangrelor intermediate dose (0.2 μg/kg/min)): 3/6
complete suppression of CFRs ([2]; cangrelor lowest dose (0.1 μg/kg/min)): No complete suppression

SMILES: CCOC(=O)N[C@@H]1CC[C@@H]2[C@@H](C1)C[C@H]1C(=O)O[C@H](C)[C@H]1[C@H]2/C=C/c1ccc(-c2ccccn2)cn1 [SCH 602539]
APTT ([1]; SCH 602539 0.1 mg/kg, bolus, plasma, baseline 22.8 ± 1.7): 22.4 ± 1.5 s
APTT ([1]; SCH 602539 0.3 mg/kg, bolus, baseline 22.8 ± 1.7): 23.4 ± 2.2 s
APTT ([1]; SCH 602539 1.0 mg/kg, bolus, baseline 22.8 ± 1.7): 25.4 ± 4.9 s
effect on APTT [1]: no effect
CFR frequency reduced from baseline ([2]; SCH 602539 0.1 mg/kg i.v. bolus): approximately 50%
CFRs ([2]; SCH 602539 0.1 mg/kg i.v. bolus, CFRs per 30-minute period, baseline 8.7 + 0.6): 4.3 + 1.3
animals in which CFRs were completely abolished ([2]; SCH 602539 0.3 mg/kg): 4 of 6
CFR frequency reduced from baseline ([2]; SCH 602539 0.3 mg/kg i.v. bolus, P<0.05 versus vehicle): > 80%
CFRs ([2]; SCH 602539 0.3 mg/kg i.v. bolus, per 30-minute period, baseline 8.7 + 0.6): 1.7 + 1.2
animals in which CFRs were completely abolished ([2]; SCH 602539 1.0 mg/kg): 4 of 6
CFR frequency reduced from baseline ([2]; SCH 602539 1.0 mg/kg i.v. bolus, P<0.05 versus vehicle): > 80%
CFRs ([2]; SCH 602539 1.0 mg/kg i.v. bolus, per 30-minute period, baseline 8.7 + 0.6): 1.8 + 1.3
EC50 (dose regimen needed for 50% reduction in CFRs) ([2]; i.v. bolus): 0.10 ± 0.042 mg/kg
